What was measured:
[1] = system: Neurons from the brain's hippocampus; test: Glutamate toxicity, mitochondrial health (TMRE); assay type: cell-based, rat; settings: for Mitochondrial Health (% Control): glutamate 25 μM 24 h
Description: Neurons from the brain's hippocampus were derived from E17 pups and incubated for 7 days. The cells were pre-treated with QBA for 48 hours and subsequently challenged with glutamate (25 μM) for 24 hours. The cultures were then stained with propidium iodide, a marker of cell death, and with tetramethylrhodamine ethyl ester (TMRE), a marker for mitochondrial health. The fluorescence of each of these markers was then quantitated with a fluorimeter.

[2] = Body weight of aged male rats fed QBA (Example 7); assay type: in vivo, rat
Description: Aged male rats were fed 10-Hydroxy-2-decenoic acid (QBA) for approximately 7 months from 11-months to 18-months of age and the weight of rats was recorded.

SMILES: O=C(O)C=CCCCCCCCO [QBA, 10-Hydroxy-2-decenoic acid]
- Mitochondrial Health (% Control) ([1]; QBA 0.10 μM pre-treatment 48 h): 101.94 % Control
- Mitochondrial Health (% Control) ([1]; QBA 0.30 μM pre-treatment 48 h): 112.27 % Control
- Mitochondrial Health (% Control) ([1]; QBA 1.00 μM pre-treatment 48 h): 110.50 % Control
- Mitochondrial Health (% Control) ([1]; QBA 3.00 μM pre-treatment 48 h): 106.39 % Control
- Mitochondrial Health (% Control) ([1]; QBA 10.00 μM pre-treatment 48 h): 111.02 % Control
- Mitochondrial Health (% Control) ([1]; QBA 30.00 μM pre-treatment 48 h): 114.72 % Control
- Mitochondrial Health (% Control) ([1]; QBA 100.00 μM pre-treatment 48 h): 123.80 % Control
- cell health after glutamate toxicity ([1]; summary of Table 3): increased cell health
- Avg Wt ([2]; QBA 0.4 mg/kg/day, study day 0): 509.6 g
- Avg Wt ([2]; QBA 0.4 mg/kg/day, study day 7): 516.1 g
- Avg Wt ([2]; QBA 0.4 mg/kg/day, study day 21): 524.4 g
- Avg Wt ([2]; QBA 0.4 mg/kg/day, study day 29): 508.6 g
- Avg Wt ([2]; QBA 0.4 mg/kg/day, study day 36): 523.1 g
- Avg Wt ([2]; QBA 0.4 mg/kg/day, study day 50): 554.6 g
- Avg Wt ([2]; QBA 0.4 mg/kg/day, study day 57): 559.5 g
- Avg Wt ([2]; QBA 0.4 mg/kg/day, study day 64): 566.7 g
- Avg Wt ([2]; QBA 0.4 mg/kg/day, study day 71): 568.6 g
- Avg Wt ([2]; QBA 0.4 mg/kg/day, study day 78): 570.3 g
- Avg Wt ([2]; QBA 0.4 mg/kg/day, study day 85): 577.3 g
- Avg Wt ([2]; QBA 0.4 mg/kg/day, study day 92): 581.3 g
- Avg Wt ([2]; QBA 0.4 mg/kg/day, study day 99): 583.8 g
- Avg Wt ([2]; QBA 0.4 mg/kg/day, study day 106): 592.7 g
- Avg Wt ([2]; QBA 0.4 mg/kg/day, study day 113): 593.2 g
- Avg Wt ([2]; QBA 0.4 mg/kg/day, study day 120): 596.8 g
- Avg Wt ([2]; QBA 0.4 mg/kg/day, study day 127): 590.7 g
- Avg Wt ([2]; QBA 0.4 mg/kg/day, study day 141): 589.8 g
- Avg Wt ([2]; QBA 0.4 mg/kg/day, study day 148): 578.0 g
- Avg Wt ([2]; QBA 0.4 mg/kg/day, study day 155): 585.4 g
- Avg Wt ([2]; QBA 0.4 mg/kg/day, study day 162): 593.6 g
- Avg Wt ([2]; QBA 0.4 mg/kg/day, study day 169): 601.7 g
- Avg Wt ([2]; QBA 0.4 mg/kg/day, study day 176): 573.6 g
- Avg Wt ([2]; QBA 0.4 mg/kg/day, study day 182): 588.7 g
- Avg Wt ([2]; QBA 0.4 mg/kg/day, study day 190): 584.1 g
- Avg Wt ([2]; QBA 0.4 mg/kg/day, study day 197): 582.6 g
- Avg Wt ([2]; QBA 0.4 mg/kg/day, study day 204): 580.1 g
- Avg Wt ([2]; QBA 0.4 mg/kg/day, study day 211): 575.8 g
- Avg Wt ([2]; QBA 0.4 mg/kg/day, study day 217): 582.6 g
- Avg Wt ([2]; QBA 4 mg/kg/day, study day 0): 509.8 g
- Avg Wt ([2]; QBA 4 mg/kg/day, study day 7): 518.9 g
- Avg Wt ([2]; QBA 4 mg/kg/day, study day 21): 527.4 g
- Avg Wt ([2]; QBA 4 mg/kg/day, study day 29): 511.6 g
- Avg Wt ([2]; QBA 4 mg/kg/day, study day 36): 526.8 g
- Avg Wt ([2]; QBA 4 mg/kg/day, study day 50): 567.3 g
- Avg Wt ([2]; QBA 4 mg/kg/day, study day 57): 571.0 g
- Avg Wt ([2]; QBA 4 mg/kg/day, study day 64): 576.4 g
- Avg Wt ([2]; QBA 4 mg/kg/day, study day 71): 576.2 g
- Avg Wt ([2]; QBA 4 mg/kg/day, study day 78): 584.8 g
- Avg Wt ([2]; QBA 4 mg/kg/day, study day 85): 587.5 g
- Avg Wt ([2]; QBA 4 mg/kg/day, study day 92): 584.3 g
- Avg Wt ([2]; QBA 4 mg/kg/day, study day 99): 595.4 g
- Avg Wt ([2]; QBA 4 mg/kg/day, study day 106): 592.5 g
- Avg Wt ([2]; QBA 4 mg/kg/day, study day 113): 594.7 g
- Avg Wt ([2]; QBA 4 mg/kg/day, study day 120): 592.2 g
- Avg Wt ([2]; QBA 4 mg/kg/day, study day 127): 592.4 g
- Avg Wt ([2]; QBA 4 mg/kg/day, study day 141): 593.1 g
- Avg Wt ([2]; QBA 4 mg/kg/day, study day 148): 588.0 g
- Avg Wt ([2]; QBA 4 mg/kg/day, study day 155): 587.8 g
- Avg Wt ([2]; QBA 4 mg/kg/day, study day 162): 589.5 g
- Avg Wt ([2]; QBA 4 mg/kg/day, study day 169): 594.0 g
- Avg Wt ([2]; QBA 4 mg/kg/day, study day 176): 601.7 g
- Avg Wt ([2]; QBA 4 mg/kg/day, study day 182): 588.0 g
- Avg Wt ([2]; QBA 4 mg/kg/day, study day 190): 597.8 g
- Avg Wt ([2]; QBA 4 mg/kg/day, study day 197): 597.7 g
- Avg Wt ([2]; QBA 4 mg/kg/day, study day 204): 601.8 g
- Avg Wt ([2]; QBA 4 mg/kg/day, study day 211): 596.6 g
- Avg Wt ([2]; QBA 4 mg/kg/day, study day 217): 595.9 g
- Avg Wt ([2]; QBA 12 mg/kg/day, study day 0): 508.7 g
- Avg Wt ([2]; QBA 12 mg/kg/day, study day 7): 508.8 g
- Avg Wt ([2]; QBA 12 mg/kg/day, study day 21): 508.0 g
- Avg Wt ([2]; QBA 12 mg/kg/day, study day 29): 490.2 g
- Avg Wt ([2]; QBA 12 mg/kg/day, study day 36): 511.7 g
- Avg Wt ([2]; QBA 12 mg/kg/day, study day 50): 554.3 g
- Avg Wt ([2]; QBA 12 mg/kg/day, study day 57): 551.4 g
- Avg Wt ([2]; QBA 12 mg/kg/day, study day 64): 567.6 g
- Avg Wt ([2]; QBA 12 mg/kg/day, study day 71): 574.1 g
- Avg Wt ([2]; QBA 12 mg/kg/day, study day 78): 573.1 g
- Avg Wt ([2]; QBA 12 mg/kg/day, study day 85): 574.6 g
- Avg Wt ([2]; QBA 12 mg/kg/day, study day 92): 581.2 g
- Avg Wt ([2]; QBA 12 mg/kg/day, study day 99): 584.5 g
- Avg Wt ([2]; QBA 12 mg/kg/day, study day 106): 591.2 g
- Avg Wt ([2]; QBA 12 mg/kg/day, study day 113): 591.2 g
- Avg Wt ([2]; QBA 12 mg/kg/day, study day 120): 586.1 g
- Avg Wt ([2]; QBA 12 mg/kg/day, study day 127): 593.3 g
- Avg Wt ([2]; QBA 12 mg/kg/day, study day 141): 595.8 g
- Avg Wt ([2]; QBA 12 mg/kg/day, study day 148): 592.9 g
- Avg Wt ([2]; QBA 12 mg/kg/day, study day 155): 591.1 g
- Avg Wt ([2]; QBA 12 mg/kg/day, study day 162): 580.5 g
- Avg Wt ([2]; QBA 12 mg/kg/day, study day 169): 588.2 g
- Avg Wt ([2]; QBA 12 mg/kg/day, study day 176): 593.0 g
- Avg Wt ([2]; QBA 12 mg/kg/day, study day 182): 590.6 g
- Avg Wt ([2]; QBA 12 mg/kg/day, study day 190): 599.5 g
- Avg Wt ([2]; QBA 12 mg/kg/day, study day 197): 600.8 g
- Avg Wt ([2]; QBA 12 mg/kg/day, study day 204): 595.5 g
- Avg Wt ([2]; QBA 12 mg/kg/day, study day 211): 599.6 g
- Avg Wt ([2]; QBA 12 mg/kg/day, study day 217): 593.7 g
- Avg Wt ([2]; QBA 24 mg/kg/day, study day 0): 516.8 g
- Avg Wt ([2]; QBA 24 mg/kg/day, study day 7): 510.9 g
- Avg Wt ([2]; QBA 24 mg/kg/day, study day 21): 530.8 g
- Avg Wt ([2]; QBA 24 mg/kg/day, study day 29): 512.3 g
- Avg Wt ([2]; QBA 24 mg/kg/day, study day 36): 546.4 g
- Avg Wt ([2]; QBA 24 mg/kg/day, study day 50): 574.6 g
- Avg Wt ([2]; QBA 24 mg/kg/day, study day 57): 586.8 g
- Avg Wt ([2]; QBA 24 mg/kg/day, study day 64): 594.2 g
- Avg Wt ([2]; QBA 24 mg/kg/day, study day 71): 598.5 g
- Avg Wt ([2]; QBA 24 mg/kg/day, study day 78): 600.7 g
- Avg Wt ([2]; QBA 24 mg/kg/day, study day 85): 608.8 g
- Avg Wt ([2]; QBA 24 mg/kg/day, study day 92): 614.9 g
- Avg Wt ([2]; QBA 24 mg/kg/day, study day 99): 618.1 g
- Avg Wt ([2]; QBA 24 mg/kg/day, study day 106): 626.7 g
- Avg Wt ([2]; QBA 24 mg/kg/day, study day 113): 628.4 g
- Avg Wt ([2]; QBA 24 mg/kg/day, study day 120): 628.6 g
- Avg Wt ([2]; QBA 24 mg/kg/day, study day 127): 630.3 g
- Avg Wt ([2]; QBA 24 mg/kg/day, study day 141): 632.0 g
- Avg Wt ([2]; QBA 24 mg/kg/day, study day 148): 635.4 g
- Avg Wt ([2]; QBA 24 mg/kg/day, study day 155): 636.3 g
- Avg Wt ([2]; QBA 24 mg/kg/day, study day 162): 637.3 g
- Avg Wt ([2]; QBA 24 mg/kg/day, study day 169): 628.4 g
- Avg Wt ([2]; QBA 24 mg/kg/day, study day 176): 643.9 g
- Avg Wt ([2]; QBA 24 mg/kg/day, study day 182): 646.0 g
- Avg Wt ([2]; QBA 24 mg/kg/day, study day 190): 649.5 g
- Avg Wt ([2]; QBA 24 mg/kg/day, study day 197): 653.3 g
- Avg Wt ([2]; QBA 24 mg/kg/day, study day 204): 644.4 g
- Avg Wt ([2]; QBA 24 mg/kg/day, study day 211): 647.8 g
- Avg Wt ([2]; QBA 24 mg/kg/day, study day 217): 650.6 g
- body weight versus control, repeated measures ANOVA ([2]; all doses versus 0 mg/kg/day QBA): small but significant increase
- body weight maintenance in aging male rats ([2]; summary of Table 13): helped to maintain healthy body weight

From patent publication US10004711B2, “Methods and compositions comprising 10-hydroxy-2-decenoic acid” (DSM IP ASSETS B.V., priority 2014, dated 2018)
